According to patent US10765114B2, “4-amino-6-(pyridyl and 2-substitutedphenyl)-picolinates and 6-amino-2-(pyridyl and 2-substitutedphenyl)-pyrimidine-4-carboxylates and their use as herbicides” (Dow AgroSciences LLC, priority 2013, dated 2020):

Test system: Key Grass and Sedge Weeds as well as Grass Crops
Assay: Post-Emergent Test II (Table 6)
Assay type: in vivo
Conditions: CYPSS (CYPES: yellow nutsedge, Cyperus esculentus), 70 g ai/ha
Description: Seeds or nutlets of the desired test plant species were planted in Sun Gro Metro-Mix® 360 planting mixture, which typically has a pH of 6.0 to 6.8 and an organic matter content of about 30 percent, in plastic pots with a surface area of 64 square centimeters. When required to ensure good germination and healthy plants, a fungicide treatment and/or other chemical or physical treatment was applied. The plants were grown for 7-21 days in a greenhouse with an approximate 15 h photoperiod which was maintained at about 23-29° C. during the day and 22-28° C. during the night. Nutrients and water were added on a regular basis and supplemental lighting was provided with overhead metal halide 1000-Watt lamps as necessary. The plants were employed for testing when they reached the first or second true leaf stage.
A weighed amount, determined by the highest rate to be tested, of each test compound was placed in a 25 mL glass vial and was dissolved in 4 mL of a 97:3 v/v mixture of acetone and DMSO to obtain concentrated stock solutions. […] The concentrated stock solutions obtained were diluted with 20 mL of an aqueous mixture containing acetone, water, isopropyl alcohol, DMSO, Atplus 411F crop oil concentrate, and Triton® X-155 surfactant in a 48.5:39:10:1.5:1.0:0.02 v/v ratio to obtain spray solutions containing the highest application rates. Additional application rates were obtained by serial dilution of 12 mL of the high rate solution into a solution containing 2 mL of 97:3 v/v mixture of acetone and DMSO and 10 mL of an aqueous mixture containing acetone, water, isopropyl alcohol, DMSO, Atplus 411F crop oil concentrate, and Triton X-155 surfactant in a 48.5:39:10:1.5:1.0:0.02 v/v ratio to obtain ½×, ¼×, ⅛× and 1/16× rates of the high rate. Compound requirements are based upon a 12 mL application volume at a rate of 187 liters per hectare (L/ha). Formulated compounds were applied to the plant material with an overhead Mandel track sprayer equipped with 8002E nozzles calibrated to deliver 187 L/ha over an application area of 0.503 square meters at a spray height of 18 inches (43 cm) above the average plant canopy height. Control plants were sprayed in the same manner with the solvent blank.
The treated plants and control plants were placed in a greenhouse as described above and watered by subirrigation to prevent wash-off of the test compounds. After 14 days, the condition of the test plants as compared with that of the untreated plants was determined visually and scored on a scale of 0 to 100 percent where 0 corresponds to no injury and 100 corresponds to complete kill and presented as indicated in Table A. Some of the compounds tested, application rates employed, plant species tested, and results are given in Table 5.

Structure (SMILES)	Visual Growth Reduction (%) 14 Days After Application, CYPSS
Nc1c(F)c(-c2ccc(Cl)c(F)c2Cl)nc(C(=O)O)c1Cl [Compound 16, 4-Amino-3-chloro-6-(2,4-dichloro-3-fluorophenyl)-5-fluoropicolinic acid]	A (95-100)

Same assay, conditions: CYPSS (CYPES: yellow nutsedge, Cyperus esculentus), 140 g ai/ha

Structure (SMILES)	Visual Growth Reduction (%) 14 Days After Application, CYPSS
Nc1c(F)c(-c2ccc(Cl)c(F)c2Cl)nc(C(=O)O)c1Cl [Compound 16, 4-Amino-3-chloro-6-(2,4-dichloro-3-fluorophenyl)-5-fluoropicolinic acid]	B (85-94)

Same assay, conditions: DIGSA: crabgrass (Digitaria sanguinalis), 70 g ai/ha

Structure (SMILES)	Visual Growth Reduction (%) 14 Days After Application, DIGSA
Nc1c(F)c(-c2ccc(Cl)c(F)c2Cl)nc(C(=O)O)c1Cl [Compound 16, 4-Amino-3-chloro-6-(2,4-dichloro-3-fluorophenyl)-5-fluoropicolinic acid]	C (75-84)

Same assay, conditions: DIGSA: crabgrass (Digitaria sanguinalis), 140 g ai/ha

Structure (SMILES)	Visual Growth Reduction (%) 14 Days After Application, DIGSA
Nc1c(F)c(-c2ccc(Cl)c(F)c2Cl)nc(C(=O)O)c1Cl [Compound 16, 4-Amino-3-chloro-6-(2,4-dichloro-3-fluorophenyl)-5-fluoropicolinic acid]	B (85-94)

Same assay, conditions: ECHSS (ECHCG: barnyardgrass, Echinochloa crus-galli), 70 g ai/ha

Structure (SMILES)	Visual Growth Reduction (%) 14 Days After Application, ECHSS
Nc1c(F)c(-c2ccc(Cl)c(F)c2Cl)nc(C(=O)O)c1Cl [Compound 16, 4-Amino-3-chloro-6-(2,4-dichloro-3-fluorophenyl)-5-fluoropicolinic acid]	B (85-94)

Same assay, conditions: ECHSS (ECHCG: barnyardgrass, Echinochloa crus-galli), 140 g ai/ha

Structure (SMILES)	Visual Growth Reduction (%) 14 Days After Application, ECHSS
Nc1c(F)c(-c2ccc(Cl)c(F)c2Cl)nc(C(=O)O)c1Cl [Compound 16, 4-Amino-3-chloro-6-(2,4-dichloro-3-fluorophenyl)-5-fluoropicolinic acid]	A (95-100)

Same assay, conditions: ORYSS (ORYSA: rice, Oryza sativa), crop, 70 g ai/ha

Structure (SMILES)	Visual Growth Reduction (%) 14 Days After Application, ORYSS
Nc1c(F)c(-c2ccc(Cl)c(F)c2Cl)nc(C(=O)O)c1Cl [Compound 16, 4-Amino-3-chloro-6-(2,4-dichloro-3-fluorophenyl)-5-fluoropicolinic acid]	F (30-44)

Same assay, conditions: ORYSS (ORYSA: rice, Oryza sativa), crop, 140 g ai/ha

Structure (SMILES)	Visual Growth Reduction (%) 14 Days After Application, ORYSS
Nc1c(F)c(-c2ccc(Cl)c(F)c2Cl)nc(C(=O)O)c1Cl [Compound 16, 4-Amino-3-chloro-6-(2,4-dichloro-3-fluorophenyl)-5-fluoropicolinic acid]	E (45-59)

Same assay, conditions: SETFA: giant foxtail (Setaria faberi), 70 g ai/ha

Structure (SMILES)	Visual Growth Reduction (%) 14 Days After Application, SETFA
Nc1c(F)c(-c2ccc(Cl)c(F)c2Cl)nc(C(=O)O)c1Cl [Compound 16, 4-Amino-3-chloro-6-(2,4-dichloro-3-fluorophenyl)-5-fluoropicolinic acid]	A (95-100)

Same assay, conditions: SETFA: giant foxtail (Setaria faberi), 140 g ai/ha

Structure (SMILES)	Visual Growth Reduction (%) 14 Days After Application, SETFA
Nc1c(F)c(-c2ccc(Cl)c(F)c2Cl)nc(C(=O)O)c1Cl [Compound 16, 4-Amino-3-chloro-6-(2,4-dichloro-3-fluorophenyl)-5-fluoropicolinic acid]	A (95-100)

Same assay, conditions: SORVU: johnsongrass (Sorghum vulgare), 70 g ai/ha

Structure (SMILES)	Visual Growth Reduction (%) 14 Days After Application, SORVU
Nc1c(F)c(-c2ccc(Cl)c(F)c2Cl)nc(C(=O)O)c1Cl [Compound 16, 4-Amino-3-chloro-6-(2,4-dichloro-3-fluorophenyl)-5-fluoropicolinic acid]	C (75-84)

Same assay, conditions: SORVU: johnsongrass (Sorghum vulgare), 140 g ai/ha

Structure (SMILES)	Visual Growth Reduction (%) 14 Days After Application, SORVU
Nc1c(F)c(-c2ccc(Cl)c(F)c2Cl)nc(C(=O)O)c1Cl [Compound 16, 4-Amino-3-chloro-6-(2,4-dichloro-3-fluorophenyl)-5-fluoropicolinic acid]	B (85-94)

Same assay, conditions: TRZSS (TRZAS: wheat, spring, Triticum aestivum), crop, 70 g ai/ha

Structure (SMILES)	Visual Growth Reduction (%) 14 Days After Application, TRZSS
Nc1c(F)c(-c2ccc(Cl)c(F)c2Cl)nc(C(=O)O)c1Cl [Compound 16, 4-Amino-3-chloro-6-(2,4-dichloro-3-fluorophenyl)-5-fluoropicolinic acid]	B (85-94)

Same assay, conditions: TRZSS (TRZAS: wheat, spring, Triticum aestivum), crop, 140 g ai/ha

Structure (SMILES)	Visual Growth Reduction (%) 14 Days After Application, TRZSS
Nc1c(F)c(-c2ccc(Cl)c(F)c2Cl)nc(C(=O)O)c1Cl [Compound 16, 4-Amino-3-chloro-6-(2,4-dichloro-3-fluorophenyl)-5-fluoropicolinic acid]	B (85-94)

Same assay, conditions: ZEAMX: maize, corn (Zea mays), crop, 70 g ai/ha

Structure (SMILES)	Visual Growth Reduction (%) 14 Days After Application, ZEAMX
Nc1c(F)c(-c2ccc(Cl)c(F)c2Cl)nc(C(=O)O)c1Cl [Compound 16, 4-Amino-3-chloro-6-(2,4-dichloro-3-fluorophenyl)-5-fluoropicolinic acid]	B (85-94)
